In article PMC5581033, “Targeting aldehyde dehydrogenase activity in head and neck squamous cell carcinoma with a novel small molecule inhibitor” (Oncotarget, 2017) one finds IC50 data, which are given here for 1 compound.

Each structure is given as a SMILES string. pIC50: −log10 of the molar value.

Holding throughout (test): purified recombinant isozyme activity assay, NADH formation at […] nm with acetaldehyde and NAD+
Common to all, as to format: biochemical

The target in one experiment is T1, ALDH2 (Homo sapiens, UniProt P05091).
T1 sequence (P05091 18-517): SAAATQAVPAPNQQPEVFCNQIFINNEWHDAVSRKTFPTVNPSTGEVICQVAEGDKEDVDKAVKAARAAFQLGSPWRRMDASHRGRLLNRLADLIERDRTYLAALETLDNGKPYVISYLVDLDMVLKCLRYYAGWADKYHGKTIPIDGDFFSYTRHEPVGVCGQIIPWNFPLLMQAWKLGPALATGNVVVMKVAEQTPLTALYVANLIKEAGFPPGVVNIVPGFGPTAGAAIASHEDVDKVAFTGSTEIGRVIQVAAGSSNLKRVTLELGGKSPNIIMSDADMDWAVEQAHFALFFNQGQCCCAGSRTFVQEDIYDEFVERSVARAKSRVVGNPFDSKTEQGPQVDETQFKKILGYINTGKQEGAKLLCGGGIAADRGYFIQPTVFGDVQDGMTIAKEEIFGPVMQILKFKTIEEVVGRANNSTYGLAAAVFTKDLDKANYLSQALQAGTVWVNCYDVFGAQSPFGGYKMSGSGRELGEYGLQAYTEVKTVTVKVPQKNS

For another experiment, the target named is T2, ALDH3A1 (Homo sapiens, UniProt P30838).
T2 sequence (P30838 2-453): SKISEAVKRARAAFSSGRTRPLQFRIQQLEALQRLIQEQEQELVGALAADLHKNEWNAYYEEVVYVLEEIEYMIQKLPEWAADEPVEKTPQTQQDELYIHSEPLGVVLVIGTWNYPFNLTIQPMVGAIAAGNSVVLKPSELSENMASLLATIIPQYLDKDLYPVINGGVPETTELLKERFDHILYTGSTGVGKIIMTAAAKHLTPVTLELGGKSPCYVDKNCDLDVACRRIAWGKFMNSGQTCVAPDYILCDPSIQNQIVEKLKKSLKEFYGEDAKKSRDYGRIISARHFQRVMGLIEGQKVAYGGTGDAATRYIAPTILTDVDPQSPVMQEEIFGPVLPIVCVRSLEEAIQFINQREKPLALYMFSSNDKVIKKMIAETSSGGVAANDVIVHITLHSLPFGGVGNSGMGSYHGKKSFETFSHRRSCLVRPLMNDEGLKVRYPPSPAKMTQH

For the next experiment, the target named is T3, ALDH1A1 (Homo sapiens, UniProt P00352).
T3 sequence (P00352 2-501): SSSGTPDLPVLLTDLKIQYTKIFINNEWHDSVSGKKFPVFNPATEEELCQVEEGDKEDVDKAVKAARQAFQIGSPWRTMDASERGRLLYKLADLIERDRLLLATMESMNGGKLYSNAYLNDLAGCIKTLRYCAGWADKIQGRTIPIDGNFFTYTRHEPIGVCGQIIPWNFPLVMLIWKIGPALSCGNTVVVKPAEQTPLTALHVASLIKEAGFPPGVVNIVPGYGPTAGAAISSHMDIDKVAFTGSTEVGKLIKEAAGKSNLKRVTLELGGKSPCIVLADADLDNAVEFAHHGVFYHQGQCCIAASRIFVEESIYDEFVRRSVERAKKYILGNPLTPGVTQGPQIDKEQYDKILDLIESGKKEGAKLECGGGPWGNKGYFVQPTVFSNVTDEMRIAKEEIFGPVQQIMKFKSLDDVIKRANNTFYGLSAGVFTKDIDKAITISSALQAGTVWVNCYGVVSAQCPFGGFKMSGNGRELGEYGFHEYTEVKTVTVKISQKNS

By pIC50 is commonly meant −log10 of the IC50, conventionally taken in molar units. Take `CN(C)CCC(=O)c1ccc(Br)cc1` [Aldi-6, 3-(Dimethylamino)-4′-bromopropiophenone]: the values for the pIC50 on ALDH2, on ALDH3A1 and at ALDH1A1 were 6.10, 6.00 and 6.22, respectively.
